Earlier results on two compounds are cited in patent US6346530B1, “Process for the preparation of a bioavailable oral dosage form of cefuroxime axetil” (Ranbaxy Laboratories Limited, priority 1999, dated 2002).

Molecules are shown by their SMILES.

For this data set the following is noted: background, result in words.

As to `CO/N=C(\C(=O)N[C@@H]1C(=O)N2C(C(=O)OC(C)OC(C)=O)=C(COC(N)=O)CS[C@H]12)c1ccco1` (some centres unmarked) [amorphous form of cefuroxime axetil, cefuroxime axetil], the “Bioavailability upon oral administration” value was “high bioavailability”.
With `CO/N=C(\C(=O)N[C@@H]1C(=O)N2C(C(=O)OC(C)OC(C)=O)=C(COC(N)=O)CS[C@H]12)c1ccco1` (some centres unmarked) [Crystalline cefuroxime axetil, cefuroxime axetil], the “Bioavailability upon oral administration” value is “does not exhibit adequate bioavailability”.
